Data taken from patent US20210386756A1, “IMPROVEMENTS FOR PERFORMING AND FACILITATING THE RECOVERY AFTER HEMATOPOIETIC STEM CELL TRANSPLANTATION” (Centro de Investigaciones Energéticas, Medioambientales y …, priority 2018, published 2021).

What was measured:
[1] = tested on: hCD34+ hematopoietic progenitors; experiment: In vitro toxicity of natural estrogens for hematopoietic progenitors (hCD34+ culture, FACS subsets); assay type: cell-based, human; conditions: for toxicity for hematopoietic progenitor subpopulations: 10 nM to 500 μM, in vitro; for % CD34+/CD38− / % HSC / % MLP / % MPP: four days culture
Procedure: FIG. 9 relates the effect of different concentration of E1, E2, E3 and E4 in human hematopoietic progenitors. Human hematopoietic progenitors were culture in phenol red free media supplemented with 100 ng/mL SCF, 100 ng/ml FLT3L and 100 ng/ml TPO and different concentration of E1, E2, E3 and E4 (from 10 nM to 500 μM). FIG. 9A represents the fold increase of the number of hematopoietic cells after four days in culture. FIG. 9B indicates the total number of primitive hematopoietic progenitors (CD34^+/CD38^−) present in the culture, extrapolated from number of cells and the frequency of this population analyzed by FACS. […] Grey dashed lines point the value of control group, and red dashed lines indicate the initial values at day 0. (Kruskal-Wallis test; P<0.05, data from four independent experiments).
To assess the toxicity of the natural estrogens (E1, E2, E3 and E4) for hematopoietic progenitors, in vitro studies were performed. 5×10^4 hCD34^+ were cultured in a phenol red-free media, X-Vivo 20 (Lonza), in presence of 100 ng/ml SCF, 100 ng/ml FLT3L, 100 ng/ml TPO, 0.5% PS, 1% Glutamax (Thermofisher) and different concentrations of E1, E2, E3 or E4 (from 10 nM to 500 μM). Cell proliferation and immunophenotype of different hematopoietic subsets (CD34^+/CD38^−, HSC [CD34^+/CD38^−/CD45RA^−/CD90^+], Multipotent Progenitors [MPP, CD34^+/CD38^−/CD45RA^−/CD90^−], Multipotent Lymphoid Progenitors [MLP, CD34^+/CD38^−/CD45RA^+] were evaluated at day 0 and four days after culture.

[2] = tested on: human cord-blood CD34+ cells; experiment: Human hematopoietic engraftment in male NSG mice transplanted with 5×10^4 human cord-blood CD34+ cells; assay type: in vivo, mouse; conditions: male NSG, 5×10^4 CD34+, 2 μg daily for four days, mean +/− SEM
Procedure: Three-four months later, the animals were sacrificed and the human hematopoietic engraftment was analyzed by FACS. Human hematopoietic population was identified as the cells positive for hCD45-APC-Cy7 (Biolegend) and negative for mouse CD45.1-PE (Biolegend). In order to further examine the effect of the estrogen in HSCT, hematopoietic progenitors (hCD34+) and hematopoietic stem cells (hCD34+/hCD38−) were analyzed by FACS inside of the human population in the treated NSG described in Example 1.

human cord blood CD34+ [3] = experiment: Human engraftment in male NSG mice transplanted with a limited CD34+ cell dose (5×10^3); assay type: in vivo, mouse
Procedure: FIG. 6A indicates the level of human engraftment, which was raised by E4 administration. […] (Kruskal-Wallis test; P=0.1150, 7-10 mice per group). […] Three-four months later, the animals were sacrificed and the human hematopoietic engraftment was analyzed by FACS. Human hematopoietic population was identified as the cells positive for hCD45-APC-Cy7 (Biolegend) and negative for mouse CD45.1-PE (Biolegend). To determine whether estrogen can improve hematopoietic reconstitution of low number of hematopoietic progenitors, male NSG were irradiated and transplanted with low doses of human cord blood CD34+ (5×103 hCD34+). The human engraftment was analyzed as described in Example 1.

human cord blood CD34+ [4] = experiment: Human engraftment in female NSG mice transplanted with a limited CD34+ cell dose (5×10^3); assay type: in vivo, mouse; conditions: low dose 5×10^3 hCD34+, mean +/− SEM
Source text: FIG. 7A indicates human hematopoietic reconstitution after four months. […] However, in spite of this presence of endogenous estrogens, the human engraftment in female recipients was increased after E2 and more importantly after E4 treatment. FIG. 7B relates the presence of primitive hematopoietic progenitors was higher in the female mice treated with estrogens, which indicated the quality of the reconstitution. (Kruskal-Wallis test; P<0.05, 4 mice per group). […] Three-four months later, the animals were sacrificed and the human hematopoietic engraftment was analyzed by FACS. Human hematopoietic population was identified as the cells positive for hCD45-APC-Cy7 (Biolegend) and negative for mouse CD45.1-PE (Biolegend). To assess whether estrogen can improve hematopoietic reconstitution in female recipients, female NSG were irradiated and transplanted by a low doses of human cord blood CD34^+ (5×10^3 hCD34^+). The human engraftment was analyzed as described in Example 1. […] However, in spite of this presence of endogenous estrogens, the human engraftment in female recipients was increased after E2 and more importantly after E4 treatment.

[5] = tested on: human hematopoietic progenitors (CB-CD34+); experiment: LTC-IC human bone marrow-like co-culture (hMSC + hCD34+) and CFU assay; assay type: cell-based
Procedure: LTC-IC was established through the co-culture of human bone marrow Mesenchymal Stromal Cells (BM-MSC) and human progenitors (CB-CD34+) to research the positive effects of the estrogens in a human context, such as an in vitro human bone marrow model. LTC-ICs were treated with vehicle or 100 µM of E2 or E4 for a week. […] Cells were plated in methycellulose media with specific hematopoietic cytokines to evaluate the hematopoietic progenitor content. After 14 days, colony forming units (CFU) were counted. Data were normalized to control groups. […] 1×10^5 human mesenchymal stromal cells (hMSC) were seeded in a p6 well and irradiated with 30 Gy next day. The following day, 5×10^4 hCD34^+ were added to the hMSC in LTC-IC media: 75% α-MEM without Phenol Red (Life Technologies), 12.5% Hyclone FBS (GE Healthcare), HS (Life Technologies), β-mercaptoethanol (Life Technologies), 0.5% PS and 1×10^−6 M Hydrocortisone (Sigma-Aldrich). 100 μM of estrogens, dissolved in ethanol, was added to the co-culture for a week, and then the cells were collected and the amount of human hematopoietic progenitors were evaluated in semisolid media supplement with specific hematopoietic cytokines (H4535, StemCell Technologies) plus 8 U/ml hEPO. After fourteen days, colony-forming units (CFU) were evaluated and normalized to the control: […]

[6] = 100 μM for a week, versus vehicle

Row | Compound | toxicity for hematopoietic progenitor subpopulations [1] | % CD34+/CD38− ([1]; 10 nM) [%] | % HSC ([1]; 10 nM) [%] | % MLP ([1]; 10 nM) [%] | % MPP ([1]; 10 nM) [%] | % CD34+/CD38− ([1]; 100 nM) [%] | % HSC ([1]; 100 nM) [%] | % MLP ([1]; 100 nM) [%] | % MPP ([1]; 100 nM) [%] | % CD34+/CD38− ([1]; 1 μM) [%] | % HSC ([1]; 1 μM) [%] | % MLP ([1]; 1 μM) [%] | % MPP ([1]; 1 μM) [%] | % CD34+/CD38− ([1]; 10 μM) [%] | % HSC ([1]; 10 μM) [%] | % MLP ([1]; 10 μM) [%] | % MPP ([1]; 10 μM) [%] | % HSC ([1]; 100 μM) [%] | % MLP ([1]; 100 μM) [%] | % MPP ([1]; 100 μM) [%] | other results
1 | C[C@]12CC[C@@H]3c4ccc(O)cc4CC[C@H]3[C@@H]1CCC2=O [E1, estrone] | more toxic | 12.32 ± 2.72 | 2.19 ± 0.65 | 3.32 ± 1.90 | 4.69 ± 0.88 | 12.91 ± 5.83 | 2.12 ± 0.29 | 4.12 ± 3.56 | 4.37 ± 1.47 | 10.11 ± 2.31 | 2.31 ± 0.45 | 1.80 ± 0.92 | 4.48 ± 1.50 | 10.54 ± 3.34 | 2.25 ± 0.41 | 2.92 ± 2.12 | 3.66 ± 0.89 | 0.67 | 4.46 | 3.86 | % CD34+/CD38− ([1]; 100 μM): 11.02%; % CD34+/CD38− ([1]; 500 μM): 14.80 ± 4.62%; % HSC ([1]; 500 μM): 1.75 ± 0.51%; % MLP ([1]; 500 μM): 4.64 ± 3.09%; % MPP ([1]; 500 μM): 5.87 ± 1.34%
2 | C[C@]12CC[C@@H]3c4ccc(O)cc4CC[C@H]3[C@@H]1CC[C@@H]2O [E2, 17β-estradiol] | more toxic | 11.99 ± 0.99 | 1.52 ± 0.24 | 4.23 ± 0.82 | 4.33 ± 0.33 | 10.74 ± 0.29 | 4.25 ± 2.95 | 3.72 ± 0.31 | 3.20 ± 0.76 | 13.43 ± 0.60 | 1.59 ± 0.15 | 3.98 ± 0.14 | 5.62 ± 0.74 | 17.52 ± 2.19 | 1.86 ± 0.12 | 6.79 ± 1.96 | 4.97 ± 0.23 | 4.50 ± 1.91 | 1.76 ± 0.66 | 7.08 ± 1.80 | % CD34+/CD38− ([1]; 100 μM): 14.52 ± 2.88%; % CD34+/CD38− ([1]; 500 μM): 11.93 ± 2.95%; % HSC ([1]; 500 μM): 3.97 ± 2.39%; % MLP ([1]; 500 μM): 1.01 ± 0.24%; % MPP ([1]; 500 μM): 6.96 ± 2.54%; Percentage in the human hematopoietic population: hematopoietic stem cells ([2]; hCD34+/hCD38−): 0.52 +/− 0.07 (n = 13) %; Percentage in the human hematopoietic population: hematopoietic progenitors ([2]; hCD34+): 9.35 +/− 0.86 (n = 13) %; Percentage of human hematopoietic reconstitution ([2]; three-four months later): 46.05 +/− 5.98 (n = 13) %; Percentage in the human hematopoietic population: Lymphoid ([2]; CD19+): 82.26 +/− 2.14 (n = 9) %; Percentage in the human hematopoietic population: Myeloid ([2]; CD33+): 8.42 +/− 0.88 (n = 9) %; proportion of engrafted mice (human engraftment above 0.1%) (human cord blood CD34+ [3]; 5×10^3 CB-CD34+): 70%; change of the proportion of engrafted mice versus vehicle (human cord blood CD34+ [3]; limited HPC dose, engraftment above 0.1%): almost tripled; Percentage of human hematopoietic reconstitution (human cord blood CD34+ [3]; low dose 5×103 hCD34+, mean +/− SEM): 2.12 +/− 1.05 (n = 10) %; Percentage of hematopoietic stem cells (hCD34+/hCD38−) in the human hematopoietic population (human cord blood CD34+ [4]): 0.34 +/− 0.12 (n = 3) %; Percentage of human hematopoietic reconstitution (human cord blood CD34+ [4]): 23.90 +/− 4.65 (n = 3) %; Normalized human CFU ([5]; 100 μM estrogen for a week, CFU after fourteen days, normalized to control, mean +/− SEM): 1.50 +/− 0.21 (n = 6); number of hematopoietic cells in LTC-IC [5, 6]: reduced; total number of primitive hematopoietic progenitors in LTC-IC [5, 6]: did not change
3 | C[C@]12CC[C@@H]3c4ccc(O)cc4CC[C@H]3[C@@H]1C[C@@H](O)[C@@H]2O [E3, estriol] | more toxic | 14.77 ± 0.41 | 1.87 ± 0.09 | 4.94 ± 0.70 | 5.75 ± 0.21 | 18.28 ± 1.30 | 2.28 ± 0.03 | 6.46 ± 0.83 | 7.25 ± 0.46 | 14.96 ± 0.57 | 4.94 ± 2.86 | 2.72 ± 2.38 | 5.57 ± 0.12 | 15.89 ± 0.62 | 1.95 ± 0.13 | 5.24 ± 0.65 | 6.18 ± 0.47 | 4.13 | 0.15 | 6.44 | % CD34+/CD38− ([1]; 500 μM): 17.92 ± 2.56%; % HSC ([1]; 500 μM): 3.70 ± 1.51%; % MLP ([1]; 500 μM): 4.73 ± 1.60%; % MPP ([1]; 500 μM): 7.61 ± 2.91%
